In paper PMC8287724, “Reducing Auditory Nerve Excitability by Acute Antagonism of Ca^2+-Permeable AMPA Receptors” (Frontiers in Synaptic Neuroscience, 2021):

Experiments:
[1] = biological target: T1, M1 acetylcholine GPCR (Homo sapiens, UniProt P11229); test: Radioligand binding assay, M1 receptor (transfected CHO cells); conditions: antagonist 1 μM
T1 construct: host or cells: CHO cells
Description: (§1) Binding assays were conducted to evaluate the affinity of test compounds IEM-1460 and IEM-1925 (Eurofins Scientific, Inc.) for 15 targets: the human alpha-1 adrenergic (A1) receptor, histaminergic (H)-2 and−3 receptors, and muscarinic acetylcholine receptors-1 to−5 in transfected CHO cells by radioligand binding. The neuronal α4β2 and neuronal α7 cholinergic acetylcholine receptors were tested in transfected SH-SY5Y cells. The histaminergic-1 and−4 receptors were tested in transfected HEK-293 cells. Ion channel testing for AMPA and N-methyl-D-aspartate (NMDA) was performed in cells from the rat cerebral cortex. […] Non-specific binding was determined in the presence of 1 μM of DCPX. […] The filters were dried and then counted for radioactivity in a scintillation counter (Topcount, Packard) using a scintillation cocktail (Microscint 0, Packard). The results are expressed as a percent inhibition of the control radioligand specific binding: 100-[(measured specific binding)/(control specific binding) × 100]. […]
(§2) We tested the metabolic stability of the compounds with in vitro liver microsome stability assays (Table 1, right). […] We evaluated the compounds for potential toxicity with assays that test for inhibition of off-target ion channels and receptors. […]

[2] = In vitro microsomal stability assay, mouse; format: in vitro ADME; conditions: pH 7.4; mouse liver microsomes, 1 μM compound, 37°C; read-out: Half-life (min) Mean (N = 2)
Description: The stability of IEM-1460 in the presence of guinea pig liver microsomes (BioIVT, PN: X008070) or IEM-1925 in the presence of human (BioIVT, PN: M00101), mouse, or guinea pig liver microsomes was evaluated (Paraza Pharma, Inc., Montreal, Quebec, Canada). Both IEM-1925 and IEM-1460 were incubated with microsomes at 37°C for a total of 45 min. Working solutions were prepared in 100 mM potassium phosphate buffer and the final reaction was performed at pH 7.4 in 100 mM potassium phosphate buffer containing 0.5 mg/mL liver microsomal protein. Phase I metabolism was assessed by adding NADPH to a final concentration of 1 mM and collecting samples at time points 0, 5, 15, 30, and 45 min. All collected samples were quenched 1:1 with ice-cold stop solution (1 μM labetalol and 1 μM glyburide in acetonitrile) and centrifuged to remove precipitated protein. […] Samples were analyzed by LC-MS/MS using a Thermo Vanquish UPLC and a Thermo Quantis triple quadrupole mass spectrometer. […] Reference compounds were also assessed to ensure accuracy and precision of experimental protocol: imipramine and verapamil for human liver microsomes, diphenhydramine and verapamil for mouse liver microsomes, and warfarin and verapamil for guinea pig liver microsomes. […] Half-life was determined from a plot of the natural logarithm of the peak area ratio (remaining compound peak area/internal standard peak area) against time. […]

[3] = biological target: T2, H1 histamine GPCR (Homo sapiens, UniProt P35367); test: Radioligand binding assay, H1 receptor (transfected HEK-293 cells); conditions: antagonist 1 μM
T2 construct: host or cells: HEK-293 cells
T2 sequence (P35367 whole entry): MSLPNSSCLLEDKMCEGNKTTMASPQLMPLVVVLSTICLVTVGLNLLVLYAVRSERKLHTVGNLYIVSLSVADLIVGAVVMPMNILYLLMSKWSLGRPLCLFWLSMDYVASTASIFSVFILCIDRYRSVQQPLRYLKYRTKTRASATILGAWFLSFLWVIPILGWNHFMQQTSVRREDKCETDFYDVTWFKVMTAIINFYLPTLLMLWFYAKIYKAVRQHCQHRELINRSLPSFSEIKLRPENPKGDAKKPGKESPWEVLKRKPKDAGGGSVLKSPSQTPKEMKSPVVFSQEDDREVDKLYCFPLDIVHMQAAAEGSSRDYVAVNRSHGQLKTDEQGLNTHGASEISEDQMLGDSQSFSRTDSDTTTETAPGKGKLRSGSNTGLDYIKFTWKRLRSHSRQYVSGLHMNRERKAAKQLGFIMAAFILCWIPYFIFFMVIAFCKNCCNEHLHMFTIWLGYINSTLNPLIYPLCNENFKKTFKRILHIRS
Description: as §1, §2

[4] = biological target: T3, nAChR alpha4/beta2 (Homo sapiens, UniProt P17787+P43681); test: Radioligand binding assay, neuronal α4β2 nicotinic receptor (transfected SH-SY5Y cells); conditions: antagonist 1 μM
T3 construct: host or cells: SH-SY5Y cells
T3 sequence (P43681 29-627 limits assumed): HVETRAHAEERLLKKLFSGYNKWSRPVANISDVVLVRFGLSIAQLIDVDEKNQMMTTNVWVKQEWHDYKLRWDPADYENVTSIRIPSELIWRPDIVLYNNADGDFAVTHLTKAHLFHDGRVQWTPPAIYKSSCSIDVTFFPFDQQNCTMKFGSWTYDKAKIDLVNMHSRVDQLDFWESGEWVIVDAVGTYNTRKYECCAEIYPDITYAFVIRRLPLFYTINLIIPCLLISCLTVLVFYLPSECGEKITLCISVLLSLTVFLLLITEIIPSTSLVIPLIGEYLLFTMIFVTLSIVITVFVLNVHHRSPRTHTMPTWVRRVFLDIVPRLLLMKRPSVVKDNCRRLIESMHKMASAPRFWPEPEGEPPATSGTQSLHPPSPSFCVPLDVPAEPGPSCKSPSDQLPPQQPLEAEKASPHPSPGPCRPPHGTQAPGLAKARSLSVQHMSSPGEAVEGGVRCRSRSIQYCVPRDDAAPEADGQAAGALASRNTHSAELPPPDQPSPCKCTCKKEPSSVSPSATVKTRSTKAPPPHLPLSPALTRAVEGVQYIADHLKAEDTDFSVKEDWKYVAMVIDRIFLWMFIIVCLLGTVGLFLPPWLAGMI
T3 sequence (P17787 26-502): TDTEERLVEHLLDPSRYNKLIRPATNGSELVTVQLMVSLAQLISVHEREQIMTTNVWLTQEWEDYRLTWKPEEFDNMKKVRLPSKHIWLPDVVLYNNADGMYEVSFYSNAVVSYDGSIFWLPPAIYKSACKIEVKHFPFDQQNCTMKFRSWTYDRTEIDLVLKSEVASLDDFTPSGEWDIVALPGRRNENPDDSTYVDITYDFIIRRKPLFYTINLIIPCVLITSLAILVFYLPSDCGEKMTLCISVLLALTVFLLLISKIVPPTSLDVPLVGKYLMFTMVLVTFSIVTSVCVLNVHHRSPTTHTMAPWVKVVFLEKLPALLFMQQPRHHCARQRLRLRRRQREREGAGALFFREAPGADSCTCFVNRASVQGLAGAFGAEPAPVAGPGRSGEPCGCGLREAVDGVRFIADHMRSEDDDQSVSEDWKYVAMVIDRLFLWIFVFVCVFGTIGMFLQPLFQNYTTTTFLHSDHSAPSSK
Description: as §1, §2

[5] = biological target: T4, A1 adenosine GPCR (Homo sapiens, UniProt P30542); test: Radioligand binding assay, A1 receptor (transfected CHO cells); conditions: antagonist 1 μM
T4 construct: host or cells: CHO cells
T4 sequence (P30542 whole entry): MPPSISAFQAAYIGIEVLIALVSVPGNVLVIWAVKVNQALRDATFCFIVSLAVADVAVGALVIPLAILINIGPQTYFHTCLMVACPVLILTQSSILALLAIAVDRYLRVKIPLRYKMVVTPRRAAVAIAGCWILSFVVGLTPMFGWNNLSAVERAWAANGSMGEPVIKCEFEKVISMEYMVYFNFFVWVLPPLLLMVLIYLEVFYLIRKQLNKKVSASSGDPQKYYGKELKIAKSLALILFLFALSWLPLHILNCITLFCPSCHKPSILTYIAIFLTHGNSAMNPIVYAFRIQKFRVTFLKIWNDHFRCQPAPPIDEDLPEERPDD
Description: as §1, §2

T1 sequence (P11229 whole entry): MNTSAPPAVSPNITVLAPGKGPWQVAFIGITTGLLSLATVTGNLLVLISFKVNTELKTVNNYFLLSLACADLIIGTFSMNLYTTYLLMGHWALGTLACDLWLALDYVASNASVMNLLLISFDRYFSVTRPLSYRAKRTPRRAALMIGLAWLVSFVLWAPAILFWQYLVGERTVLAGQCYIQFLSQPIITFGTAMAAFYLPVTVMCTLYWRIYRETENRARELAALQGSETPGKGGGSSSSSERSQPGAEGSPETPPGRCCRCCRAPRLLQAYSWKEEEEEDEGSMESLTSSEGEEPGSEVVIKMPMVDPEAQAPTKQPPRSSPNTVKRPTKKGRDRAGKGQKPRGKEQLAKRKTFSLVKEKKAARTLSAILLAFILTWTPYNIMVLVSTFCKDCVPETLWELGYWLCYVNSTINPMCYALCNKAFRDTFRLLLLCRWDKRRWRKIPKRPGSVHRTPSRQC

SMILES: C[N+](C)(C)CCCCCNCC12CC3CC(CC(C3)C1)C2 [IEM-1460]
- Mean% inhibition (N = 2) of radioligand binding [1]: <1%
- half-life at 1 μM [2]: > 300 min
- Mean% inhibition (N = 2) of radioligand binding [3]: <1%
- Mean% inhibition (N = 2) of radioligand binding [4]: <1%
- Mean% inhibition (N = 2) of radioligand binding [5]: <1%

SMILES: NCCCCCNC1(c2ccccc2)CCCCC1 [IEM-1925]
- Mean% inhibition (N = 2) of radioligand binding [1]: <1%
- half-life at 1 μM [2]: > 300 min
- Mean% inhibition (N = 2) of radioligand binding [3]: <1%
- Mean% inhibition (N = 2) of radioligand binding [4]: <1%
- Mean% inhibition (N = 2) of radioligand binding [5]: <1%
